Test results reported in US20080085273A1, “VEHICLE FOR THE TRANSPORT OF A CHOSEN MOLECULE TO A CELL” (Synvolux IP B.V., priority 2004, published 2008).

Test system: Human Embryonic Kidney cells, strain 293A
Assay: Transfection of Human Embryonic Kidney cells with CMV-GFP plasmid complexed with SAINT-molecules, GFP expression by FACS
Format: cell-based
Conditions: 293A cells, 12 well plates; 500 ng CMV-GFP plasmid complexed with 3.75 nm SAINT molecules or linker per well; FACS 48 hours after transfection
Description: FIG. 1 is the result of Human Embryonic Kidney cells, strain 293A, cultured in 12 well plates and are transfected with 4 combinations of SAINT-molecules (i.e. SAINT-18, SAINT-18 coupled to RGD, a mixture of SAINT-18 and SAINT-18 coupled to RGD, and SAINT-18 linker).
Human Embryonic Kidney cells are difficult to be transfected. When using these cells, main competing transfection methods (of other manufacturers), require several micrograms of plasmid DNA for successful transfection. Combined with SAINT-18, 1 μg (per 12 wells) normally results in a transfection rate above 90%. To be able to visualize the enhancing effect of the targeting moiety SAINT-18-RGD, in this protocol we used a low amount of plasmid DNA (500 ng per 12 wells). The structural formula of SAINT-linker-RGD is depicted in […]. In addition, an RGD-peptide is coupled to the SATA-group of the SAINT-Linker, as described in the present invention. The RGD group is a targeting moiety for the integrin receptor family and is though to increase the transfection efficacy. Human Embryonic Kidney cells, strain 293A, are cultured in 12 well plates and are transfected with 4 combinations of Saint-molecules (i.e. SAINT-18, SAINT-18 coupled to RGD, a mixture of SAINT-18 and SAINT-18 coupled to RGD, and only a linker molecule as a reference). […] 48 hours after transfection GFP expression is measured by FACS analysis. […]

SMILES: CCCCCCCC/C=C\CCCCCCCCC(CCCCNC(=O)C1CCC(CN2C(=O)CC(SCC(=O)NC(=N)NCCCC(C)C(=O)NCC(=O)NC(CC(=O)O)C(=O)O)C2=O)CC1)c1cc[n+](C)cc1.[Cl-] (stereo not shown) [S18/RGD]
- transfection ability (percentage of GFP positive cells, FIG. 1, result in words): able to transfect cells
